Measurements taken from ChEMBL document CHEMBL1201862, “PubChem BioAssay data set” (2004).
Calls of active or inactive are those of the source.

Key:
[1] = system: BJ; assay: BJ-TERT fibroblast viability loss – cell-based, RAS-independent, luminescence, dose response (AID 1933); assay type: functional; details: Homo sapiens
[2] = system: BJ; assay: cells; assay type: functional, cell-based; details: Homo sapiens
[3] = target: Luciferin 4-monooxygenase (Photinus pyralis, UniProt P08659); assay: inhibition of purified Photinus pyralis luciferase – biochemical, luminescence, dose response (AID 1891)
[4] = Luminescence Cell-Based Dose Confirmation HTS to Identify Inhibitors of Platelet Dense Granule Release. [Related pubchem assays: 1663 (Primary HTS), 1678 (Summary of Project)]; assay type: functional
[5] = system: BJ; assay: BJ-TERT-LT-ST fibroblast viability loss – cell-based, RAS-independent, luminescence, dose response (AID 1935); assay type: functional; details: Homo sapiens;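 note: BJ fibroblasts immortalized with TERT plus LT and ST oncogenes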
[6] = DRD fibroblast viability loss – cell-based, non-viral oncogenic, luminescence, dose response (AID 1934); assay type: functional; details: Homo sapiens
[7] = system: HEK293; assay: EBV LMP1 TES2 canonical NF-kB signalling blockers – cell-based, HEK293, luciferase, cherry-pick, dose response (AID 588343); assay type: functional; details: Homo sapiens
[8] = target: Cytochrome P450 2C19 (Homo sapiens, UniProt P33261); assay: Cytochrome panel assay with activity outcomes. Panel member name: p450-cyp2c19 Compounds with AC50 equal or less than 10 uM are considered active; assay type: functional
[9] = target: T1, Cytochrome P450 1A2 (Homo sapiens, UniProt P05177);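 note: PubChem cytochrome P450 panel assay, CYP1A2 panel member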
T1 sequence (P05177 whole entry): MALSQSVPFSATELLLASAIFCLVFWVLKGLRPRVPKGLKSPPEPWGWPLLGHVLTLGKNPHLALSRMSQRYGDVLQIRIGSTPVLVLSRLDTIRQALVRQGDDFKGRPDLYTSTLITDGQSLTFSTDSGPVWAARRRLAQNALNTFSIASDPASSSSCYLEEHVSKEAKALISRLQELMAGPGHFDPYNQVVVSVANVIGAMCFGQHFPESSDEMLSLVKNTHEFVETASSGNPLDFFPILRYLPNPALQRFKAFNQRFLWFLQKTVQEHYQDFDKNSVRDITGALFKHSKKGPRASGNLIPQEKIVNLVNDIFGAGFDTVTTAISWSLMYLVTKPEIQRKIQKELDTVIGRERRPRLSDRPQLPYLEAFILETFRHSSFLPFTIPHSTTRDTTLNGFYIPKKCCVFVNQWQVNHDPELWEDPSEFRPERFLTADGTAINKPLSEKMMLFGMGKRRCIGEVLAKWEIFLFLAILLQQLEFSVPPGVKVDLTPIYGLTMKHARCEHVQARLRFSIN

[10] = target: Cytochrome P450 3A4 (Homo sapiens, UniProt P08684);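 note: CYP3A4 tested as one member of a cytochrome P450 panel screen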
[11] = target: Cytochrome P450 2C9 (Homo sapiens, UniProt P11712)
[12] = system: H9c2; assay: cells; assay type: functional, cell-based; details: Rattus norvegicus, H9c2, Myocardium;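 note: confirmatory concentration-response retest of ultra-high-throughput screening hits for modulation of myocardial damage; cell death induced by hydrogen peroxide oxidative stress; compound pretreatment for 60 min then peroxide exposure for 2 h; potency is for protecting the cells against peroxide damage rather than for killing them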
[13] = target: Cytochrome P450 2D6 (Homo sapiens, UniProt P10635);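 note: CYP2D6 member of a cytochrome P450 panel assay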
[14] = Trypanosoma cruzi growth suppression in host cells – NIH3T3 host cells, beta-gal luminescence, confirmation (AID 2044); assay type: functional, cell-based;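 note: intracellular parasites grown in NIH/3T3 mouse fibroblasts as host cells; luminescent beta-galactosidase reporter signal from transgenic T. cruzi replicating inside host cells; inhibitors lower the luminescence signal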
[15] = NIH3T3 cell viability loss – ATP luminescence, mouse fibroblasts, counter-screen, dose response (AID 2010); assay type: functional, cell-based;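 note: cells exposed to compound for about 90 hours before reading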
[16] = system: INS1; assay: INS-1E survival protection against cytokine death – cell-based, luminescence, retest, dose response (AID 449756); assay type: functional; details: Rattus norvegicus;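 note: cell death triggered by IL-1 beta plus TNF-alpha plus IFN-gamma mixture; protective hits raise ATP signal compared with cytokine alone wells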
[17] = Luminescence Cell-Based Dose Response to Identify Activators of 5'UTR Stem-Loop Driven Prion Protein mRNA Translation in H4-C Neuroglioblastoma Cells. [Related pubchem assays: 1829 (Project Summary), 1814 (Primary HTS)]; assay type: functional
[18] = system: Streptococcus sp. 'group A'; assay: Streptococcus pyogenes SK(-)GAS viability under kanamycin – luminescence, BacTiterGlo, confirmation, counter-screen for streptokinase expression inhibitor project, dose response (AID 1900); assay type: functional, organism-based
[19] = system: H4; assay: Luminescence Cell-Based Dose Response HTS to Identify Activators of 5'UTR Stem-Loop Driven Prion Protein mRNA Translation in H4 Neuroglioblastoma Cells. [Related pubchem assays: 1829 (Project Summary), 1814 (Primary HTS)]; assay type: functional; details: Homo sapiens
[20] = Luminescence Cell-Based Dose Response to Identify Activators of Luciferase Translation or Activity in H4-C Neuroglioblastoma Cells. [Related pubchem assays: 1829 (Project Summary), 1814 (Primary HTS)]; assay type: functional
[21] = Luminescence Cell-Based Dose Confirmation to Identify Activators of 5'UTR Stem-Loop Driven Alpha-Synuclein mRNA Translation in H4 Neuroglioblastoma Cells. [Related pubchem assays: 1829 (Project Summary), 1814 (Primary HTS)]; assay type: functional
[22] = target: Induced myeloid leukemia cell differentiation protein Mcl-1 (Homo sapiens, UniProt Q07820); assay type: functional
[23] = system: Streptococcus; assay: GAS UMAA2166 growth inhibition – luminescence, BacTiterGlo, counter-screen for streptokinase expression inhibitor project, dose response (AID 1915); assay type: functional, organism-based;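 note: potency for reduction of bacterial viability or growth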
[24] = target: T2, Caspase-3 (Homo sapiens, UniProt P42574); assay type: functional;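 note: Dose-response selectivity test against caspase-3 for candidate inhibitors of sentrin-specific proteases (SENPs)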
T2 sequence (P42574 whole entry): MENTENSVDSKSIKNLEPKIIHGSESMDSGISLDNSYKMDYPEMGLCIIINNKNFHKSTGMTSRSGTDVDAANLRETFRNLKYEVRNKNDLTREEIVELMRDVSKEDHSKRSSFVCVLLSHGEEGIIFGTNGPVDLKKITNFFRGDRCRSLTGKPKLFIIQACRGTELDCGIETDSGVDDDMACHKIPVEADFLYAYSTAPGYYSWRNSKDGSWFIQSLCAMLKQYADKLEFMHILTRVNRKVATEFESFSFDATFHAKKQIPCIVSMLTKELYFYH

[25] = target: T3, Sentrin-specific protease 7 (Homo sapiens, UniProt Q9BQF6); assay type: functional;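 note: Luminescence-based dose-response confirmation of ultra-high-throughput screening hits, measuring inhibition of SENP7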
T3 sequence (Q9BQF6 whole entry): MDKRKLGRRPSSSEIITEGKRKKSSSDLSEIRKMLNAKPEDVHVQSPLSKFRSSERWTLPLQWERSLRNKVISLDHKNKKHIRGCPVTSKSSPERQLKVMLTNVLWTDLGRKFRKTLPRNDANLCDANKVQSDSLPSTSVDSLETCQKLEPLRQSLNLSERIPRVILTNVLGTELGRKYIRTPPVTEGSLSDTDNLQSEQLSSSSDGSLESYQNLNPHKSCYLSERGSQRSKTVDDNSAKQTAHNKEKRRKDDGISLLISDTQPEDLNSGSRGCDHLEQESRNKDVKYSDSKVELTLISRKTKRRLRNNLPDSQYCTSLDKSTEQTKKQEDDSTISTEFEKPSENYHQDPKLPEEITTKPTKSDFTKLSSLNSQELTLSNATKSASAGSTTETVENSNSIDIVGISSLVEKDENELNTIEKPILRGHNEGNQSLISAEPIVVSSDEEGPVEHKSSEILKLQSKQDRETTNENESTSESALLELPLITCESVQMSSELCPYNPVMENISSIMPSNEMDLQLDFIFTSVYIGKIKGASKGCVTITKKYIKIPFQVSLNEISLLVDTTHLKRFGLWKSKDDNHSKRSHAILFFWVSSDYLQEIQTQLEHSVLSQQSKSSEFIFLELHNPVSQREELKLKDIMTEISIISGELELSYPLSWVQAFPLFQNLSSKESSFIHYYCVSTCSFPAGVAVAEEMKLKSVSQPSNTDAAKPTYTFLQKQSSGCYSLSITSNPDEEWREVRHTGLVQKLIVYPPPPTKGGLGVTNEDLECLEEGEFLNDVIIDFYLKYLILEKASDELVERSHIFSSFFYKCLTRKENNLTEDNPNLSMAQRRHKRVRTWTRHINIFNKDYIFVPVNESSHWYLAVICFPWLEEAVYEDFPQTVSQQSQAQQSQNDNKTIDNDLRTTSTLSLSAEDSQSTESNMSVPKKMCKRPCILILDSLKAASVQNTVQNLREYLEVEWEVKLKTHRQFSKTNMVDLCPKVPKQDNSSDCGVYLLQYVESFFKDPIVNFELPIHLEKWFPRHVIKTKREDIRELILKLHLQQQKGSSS

[26] = target: T4, Sentrin-specific protease 6 (Homo sapiens, UniProt Q9GZR1); assay type: functional;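 note: Luminescence-based dose-response confirmatory assay of SENP6 inhibition, following up an ultra-high-throughput screen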
T4 sequence (Q9GZR1 whole entry): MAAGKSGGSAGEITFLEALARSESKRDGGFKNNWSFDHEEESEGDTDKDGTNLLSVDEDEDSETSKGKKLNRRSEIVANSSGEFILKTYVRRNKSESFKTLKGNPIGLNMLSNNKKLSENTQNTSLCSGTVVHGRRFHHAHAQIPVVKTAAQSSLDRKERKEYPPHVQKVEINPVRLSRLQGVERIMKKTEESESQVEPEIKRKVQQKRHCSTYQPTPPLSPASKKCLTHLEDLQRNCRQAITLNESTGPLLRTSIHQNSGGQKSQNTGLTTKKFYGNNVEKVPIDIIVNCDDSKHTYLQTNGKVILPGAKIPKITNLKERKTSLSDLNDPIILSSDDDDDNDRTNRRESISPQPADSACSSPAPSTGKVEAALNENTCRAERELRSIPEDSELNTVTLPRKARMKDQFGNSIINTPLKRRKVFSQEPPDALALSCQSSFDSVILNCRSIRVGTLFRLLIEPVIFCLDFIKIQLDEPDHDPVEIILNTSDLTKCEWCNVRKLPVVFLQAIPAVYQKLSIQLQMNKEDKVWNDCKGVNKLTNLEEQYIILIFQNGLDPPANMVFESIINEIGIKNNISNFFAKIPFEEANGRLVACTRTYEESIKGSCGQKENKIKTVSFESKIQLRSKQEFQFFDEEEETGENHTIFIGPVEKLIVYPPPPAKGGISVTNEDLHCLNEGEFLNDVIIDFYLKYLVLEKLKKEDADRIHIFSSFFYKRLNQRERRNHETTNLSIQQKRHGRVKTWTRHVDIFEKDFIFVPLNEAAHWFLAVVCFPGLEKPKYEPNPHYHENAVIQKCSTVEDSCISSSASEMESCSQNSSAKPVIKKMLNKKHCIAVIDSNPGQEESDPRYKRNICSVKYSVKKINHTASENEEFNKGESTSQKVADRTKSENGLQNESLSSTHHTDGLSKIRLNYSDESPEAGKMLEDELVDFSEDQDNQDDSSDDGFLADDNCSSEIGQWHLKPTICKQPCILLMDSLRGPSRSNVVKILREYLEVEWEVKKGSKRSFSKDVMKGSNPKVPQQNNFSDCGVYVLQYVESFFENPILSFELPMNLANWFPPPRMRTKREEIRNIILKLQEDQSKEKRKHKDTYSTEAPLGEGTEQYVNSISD

[27] = target: T5, Sentrin-specific protease 8 (Homo sapiens, UniProt Q96LD8); assay type: functional;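 note: luminescence read-out of SENP8 inhibition, dose-response confirmation following an ultra-high-throughput screen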
T5 sequence (Q96LD8 whole entry): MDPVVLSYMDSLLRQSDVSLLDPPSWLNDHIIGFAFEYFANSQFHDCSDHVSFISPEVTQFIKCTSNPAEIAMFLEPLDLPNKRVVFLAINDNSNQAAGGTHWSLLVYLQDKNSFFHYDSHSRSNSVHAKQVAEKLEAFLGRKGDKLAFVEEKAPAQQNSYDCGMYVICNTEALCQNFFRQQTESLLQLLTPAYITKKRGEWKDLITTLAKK

[28] = target: T6, Fatty acid synthase (Homo sapiens, UniProt P49327); assay: inhibition of human FAS-TE enzyme activity – biochemical, endpoint fluorescence intensity, uHTS hits, dose response (AID 624327); assay type: functional;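 note: fluorescence from hydrolysis of an O-methyl fluorescein acyl ester substrate by the enzyme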
[29] = target: T6, Fatty acid synthase; assay: inhibition of human FAS-TE enzyme activity – biochemical, kinetic fluorescence intensity, dose response (AID 624326); assay type: functional;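 note: rate of fluorescence rise from hydrolysis of a fluorogenic O-methyl fluorescein ester substrate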

Chain of Cytochrome P450 2C19 (P33261 whole entry): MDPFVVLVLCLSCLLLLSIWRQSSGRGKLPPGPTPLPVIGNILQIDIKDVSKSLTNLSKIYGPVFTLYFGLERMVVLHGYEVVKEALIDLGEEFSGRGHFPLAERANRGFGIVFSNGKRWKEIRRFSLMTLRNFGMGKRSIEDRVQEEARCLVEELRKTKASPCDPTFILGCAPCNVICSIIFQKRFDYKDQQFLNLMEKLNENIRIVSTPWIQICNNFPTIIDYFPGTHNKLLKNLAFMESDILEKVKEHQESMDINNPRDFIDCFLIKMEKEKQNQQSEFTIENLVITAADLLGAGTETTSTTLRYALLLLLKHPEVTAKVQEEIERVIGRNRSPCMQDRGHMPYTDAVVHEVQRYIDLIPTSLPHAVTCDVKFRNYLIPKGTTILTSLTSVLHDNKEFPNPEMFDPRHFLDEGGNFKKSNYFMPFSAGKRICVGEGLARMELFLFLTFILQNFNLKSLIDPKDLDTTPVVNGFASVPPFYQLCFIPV
Chain of Cytochrome P450 2C9 (P11712 whole entry): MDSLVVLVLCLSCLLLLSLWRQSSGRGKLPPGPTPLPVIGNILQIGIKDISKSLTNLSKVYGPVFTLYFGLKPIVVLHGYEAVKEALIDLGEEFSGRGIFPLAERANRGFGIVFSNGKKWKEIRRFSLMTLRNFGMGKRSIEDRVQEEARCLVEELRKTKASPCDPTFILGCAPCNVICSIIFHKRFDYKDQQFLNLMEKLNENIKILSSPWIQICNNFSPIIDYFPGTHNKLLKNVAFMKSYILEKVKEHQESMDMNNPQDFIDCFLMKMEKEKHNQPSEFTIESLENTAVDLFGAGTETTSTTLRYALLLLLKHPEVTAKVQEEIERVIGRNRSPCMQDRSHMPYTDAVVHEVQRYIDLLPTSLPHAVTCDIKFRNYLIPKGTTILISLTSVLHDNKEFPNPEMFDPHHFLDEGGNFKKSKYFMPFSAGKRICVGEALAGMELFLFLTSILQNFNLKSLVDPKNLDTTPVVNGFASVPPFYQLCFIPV
T6 sequence (P49327 whole entry): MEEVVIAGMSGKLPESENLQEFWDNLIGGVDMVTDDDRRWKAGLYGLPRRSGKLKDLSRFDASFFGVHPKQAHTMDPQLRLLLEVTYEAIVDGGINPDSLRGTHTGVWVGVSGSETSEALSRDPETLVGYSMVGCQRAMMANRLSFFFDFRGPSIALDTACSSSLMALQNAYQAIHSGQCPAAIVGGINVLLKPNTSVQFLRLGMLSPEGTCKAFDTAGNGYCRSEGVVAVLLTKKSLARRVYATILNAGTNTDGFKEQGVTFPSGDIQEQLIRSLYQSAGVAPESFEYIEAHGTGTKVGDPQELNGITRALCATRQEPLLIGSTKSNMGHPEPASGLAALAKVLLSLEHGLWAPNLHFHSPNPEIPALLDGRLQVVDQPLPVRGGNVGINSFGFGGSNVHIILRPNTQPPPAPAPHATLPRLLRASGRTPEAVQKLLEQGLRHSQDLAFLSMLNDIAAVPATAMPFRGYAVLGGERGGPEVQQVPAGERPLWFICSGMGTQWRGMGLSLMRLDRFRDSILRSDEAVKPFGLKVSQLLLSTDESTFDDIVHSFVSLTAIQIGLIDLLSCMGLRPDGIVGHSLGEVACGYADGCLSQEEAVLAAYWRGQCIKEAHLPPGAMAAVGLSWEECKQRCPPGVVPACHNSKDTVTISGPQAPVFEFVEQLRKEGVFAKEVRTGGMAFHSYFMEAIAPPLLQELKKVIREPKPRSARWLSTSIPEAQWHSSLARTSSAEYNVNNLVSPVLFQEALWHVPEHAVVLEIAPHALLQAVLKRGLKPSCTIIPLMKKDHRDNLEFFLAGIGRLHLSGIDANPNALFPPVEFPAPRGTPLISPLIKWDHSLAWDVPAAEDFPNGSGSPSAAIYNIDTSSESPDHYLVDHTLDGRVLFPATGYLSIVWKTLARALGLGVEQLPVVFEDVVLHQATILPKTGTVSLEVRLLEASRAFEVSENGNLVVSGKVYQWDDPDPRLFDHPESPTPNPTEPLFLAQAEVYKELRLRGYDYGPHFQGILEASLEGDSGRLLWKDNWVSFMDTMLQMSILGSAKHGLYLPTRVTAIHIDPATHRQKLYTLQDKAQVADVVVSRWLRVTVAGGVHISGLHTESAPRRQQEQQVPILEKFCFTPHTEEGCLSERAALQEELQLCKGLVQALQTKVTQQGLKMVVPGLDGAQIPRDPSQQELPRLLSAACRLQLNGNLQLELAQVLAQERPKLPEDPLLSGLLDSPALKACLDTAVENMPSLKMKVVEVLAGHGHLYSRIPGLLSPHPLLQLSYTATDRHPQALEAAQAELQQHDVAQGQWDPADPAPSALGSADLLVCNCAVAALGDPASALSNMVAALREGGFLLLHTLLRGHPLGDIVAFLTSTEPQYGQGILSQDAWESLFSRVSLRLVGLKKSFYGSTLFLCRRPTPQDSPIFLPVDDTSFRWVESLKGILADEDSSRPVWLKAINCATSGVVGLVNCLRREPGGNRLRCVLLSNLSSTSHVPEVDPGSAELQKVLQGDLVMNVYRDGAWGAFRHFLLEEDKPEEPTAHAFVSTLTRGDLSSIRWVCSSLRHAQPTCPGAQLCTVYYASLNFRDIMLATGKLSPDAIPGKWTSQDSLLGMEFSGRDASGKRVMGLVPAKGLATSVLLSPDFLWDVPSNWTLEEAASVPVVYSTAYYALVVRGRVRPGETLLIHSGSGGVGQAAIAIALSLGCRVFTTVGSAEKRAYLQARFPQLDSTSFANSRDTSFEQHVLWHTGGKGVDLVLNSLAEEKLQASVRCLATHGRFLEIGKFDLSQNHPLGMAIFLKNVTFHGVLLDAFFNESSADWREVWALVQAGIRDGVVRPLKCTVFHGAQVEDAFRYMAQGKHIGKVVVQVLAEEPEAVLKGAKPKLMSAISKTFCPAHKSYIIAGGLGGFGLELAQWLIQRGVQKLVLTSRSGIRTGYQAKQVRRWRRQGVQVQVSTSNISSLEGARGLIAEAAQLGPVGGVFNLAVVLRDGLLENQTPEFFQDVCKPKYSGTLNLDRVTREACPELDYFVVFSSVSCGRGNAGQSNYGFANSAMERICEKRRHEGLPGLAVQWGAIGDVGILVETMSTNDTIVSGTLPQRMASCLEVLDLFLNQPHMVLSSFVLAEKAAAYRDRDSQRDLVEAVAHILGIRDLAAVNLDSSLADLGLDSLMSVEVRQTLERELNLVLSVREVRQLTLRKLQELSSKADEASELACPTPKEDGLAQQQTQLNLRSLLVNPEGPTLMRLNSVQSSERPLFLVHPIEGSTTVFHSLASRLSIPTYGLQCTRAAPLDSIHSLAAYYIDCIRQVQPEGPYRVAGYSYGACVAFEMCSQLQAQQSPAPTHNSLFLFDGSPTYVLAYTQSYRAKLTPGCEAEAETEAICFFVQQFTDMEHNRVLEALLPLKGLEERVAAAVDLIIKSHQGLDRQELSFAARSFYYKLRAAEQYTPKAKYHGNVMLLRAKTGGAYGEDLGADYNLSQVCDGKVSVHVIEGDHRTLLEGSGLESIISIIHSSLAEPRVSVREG
Chain of Cytochrome P450 3A4 (P08684 whole entry): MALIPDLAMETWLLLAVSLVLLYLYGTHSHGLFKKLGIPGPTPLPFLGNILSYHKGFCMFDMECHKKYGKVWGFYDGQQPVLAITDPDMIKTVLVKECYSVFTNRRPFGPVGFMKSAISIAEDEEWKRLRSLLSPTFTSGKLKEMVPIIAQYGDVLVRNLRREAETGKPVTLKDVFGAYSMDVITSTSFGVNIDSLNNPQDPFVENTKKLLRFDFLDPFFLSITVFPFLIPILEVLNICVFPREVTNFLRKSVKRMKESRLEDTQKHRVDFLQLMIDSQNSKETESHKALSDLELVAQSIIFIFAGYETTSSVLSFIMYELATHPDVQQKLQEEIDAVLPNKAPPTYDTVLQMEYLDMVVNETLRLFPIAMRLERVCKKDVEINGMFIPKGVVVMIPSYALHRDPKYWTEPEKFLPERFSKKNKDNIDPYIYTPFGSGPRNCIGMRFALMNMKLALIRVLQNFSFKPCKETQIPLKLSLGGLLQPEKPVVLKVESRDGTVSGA
Chain of Induced myeloid leukemia cell differentiation protein Mcl-1 (Q07820 whole entry): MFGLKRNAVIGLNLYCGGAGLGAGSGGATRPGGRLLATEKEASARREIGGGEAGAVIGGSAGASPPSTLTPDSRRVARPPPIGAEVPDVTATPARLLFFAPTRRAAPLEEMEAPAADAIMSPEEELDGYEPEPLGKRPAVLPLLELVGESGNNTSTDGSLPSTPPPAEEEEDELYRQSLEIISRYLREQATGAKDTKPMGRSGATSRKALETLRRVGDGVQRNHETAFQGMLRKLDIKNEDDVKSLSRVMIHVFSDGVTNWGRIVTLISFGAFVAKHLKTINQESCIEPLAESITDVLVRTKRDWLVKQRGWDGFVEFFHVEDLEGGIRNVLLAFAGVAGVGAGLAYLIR
Chain of Cytochrome P450 2D6 (P10635 whole entry): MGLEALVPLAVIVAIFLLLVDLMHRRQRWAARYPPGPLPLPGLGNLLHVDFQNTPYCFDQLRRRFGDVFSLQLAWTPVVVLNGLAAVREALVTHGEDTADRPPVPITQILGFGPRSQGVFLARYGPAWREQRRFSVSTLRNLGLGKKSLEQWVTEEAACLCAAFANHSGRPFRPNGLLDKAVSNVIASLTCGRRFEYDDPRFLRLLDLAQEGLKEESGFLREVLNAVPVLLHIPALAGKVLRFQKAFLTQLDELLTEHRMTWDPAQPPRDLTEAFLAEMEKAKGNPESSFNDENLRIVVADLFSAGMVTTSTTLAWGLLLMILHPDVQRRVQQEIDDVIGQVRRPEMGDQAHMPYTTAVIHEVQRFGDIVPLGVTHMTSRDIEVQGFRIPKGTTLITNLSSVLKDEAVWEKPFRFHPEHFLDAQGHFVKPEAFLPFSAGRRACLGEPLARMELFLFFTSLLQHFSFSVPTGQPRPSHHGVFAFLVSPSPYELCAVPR

O=C(Nc1ccc(N2CCOCC2)cc1)c1cn2ccccc2n1
active: EC50 [1] 12.3 µM | EC50 [2] 11.1 µM | EC50 [3] 4.45 µM | EC50 [4] 3.25 µM | EC50 [6] 12.1 µM | AC50 [7] 3.09 µM
inconclusive: EC50 [5] > 150 µM

CCc1ccccc1NC(=O)c1nnn(CC(=O)Nc2cccc(C)c2C)c1N
inconclusive: AC50 ([8]; read-out: AC50) 2 µM | AC50 [9] 12.6 µM | AC50 [10] 7.08 µM | AC50 [11]

O=C(Nc1ncc(Cc2cccc(Cl)c2)s1)C1=NCCN1
inconclusive: AC50 [8] | AC50 [9] 31.6 µM | AC50 [11]

COc1ccc(N(C(=O)c2cccc([N+](=O)[O-])c2)S(=O)(=O)c2cccs2)cc1
inactive: IC50 [12] > 79 µM

N#Cc1c(Oc2ccc3ccccc3c2)sc(C(=O)c2ccccc2)c1N
active: AC50 [7] 26.7 µM

O=C1C2C3C=CC(CC3)C2C(=O)N1c1cccc(Br)c1 (configuration not stated)
inactive: IC50 [12] > 79 µM

Cn1c(SCC(=O)N2CCN(S(=O)(=O)c3ccccc3)CC2)nc2ccccc21
inconclusive: AC50 [13] 14.1 µM | AC50 [11]

Cc1nc2c(-c3ccc(Cl)cc3)c(C)nn2c(O)c1Cc1ccccc1
active: EC50 [14] 0.938 µM | EC50 [15] 2.97 µM | AC50 [7] 9.26 µM | AC50 [16] 2.5 µM

O=C(CSC1=NNC(c2ccccn2)S1)Nc1cccc(Cl)c1 (configuration not stated)
inactive: IC50 [12] > 79 µM

CCN(CC)CCOC(=O)c1cc(Cl)c(N)cc1OC
inconclusive: AC50 [10] 31.6 µM | AC50 [11]

O=C(O)c1ccc(N/N=C/c2ccc(-c3cc(Cl)ccc3Cl)o2)cc1
active: EC50 [17] 0.384 µM | EC50 [18] 2.44 µM | EC50 [19] < 0.1 µM | EC50 [20] 0.482 µM | EC50 [21] 0.121 µM | IC50 [22] 2.17 µM | EC50 [23] 2.61 µM | IC50 [28] 3.61 µM | IC50 [29] 4.39 µM
inactive: IC50 [24] > 100 µM | IC50 [25] > 100 µM | IC50 [26] > 100 µM | IC50 [27] > 100 µM

C/C(CC(=O)NCc1ccco1)=N\NC(=O)Cc1cccc2ccccc12
inconclusive: AC50 ([8]; read-out: AC50) 25.1 µM | AC50 [9] 12.6 µM | AC50 [11]
